According to patent publication US20250213531A1, “5-MEO-DTM FOR THE TREATMENT OF BIPOLAR DISORDER” (GH RESEARCH IRELAND LIMITED, priority 2022, published 2025):

Test system: patients with postpartum depression (PPD)
Assay: Clinical trial of inhaled 5-MeO-DMT (IDR) in postpartum depression, one patient (6 mg then 12 mg)
Details: n=1
Description: The single-arm, open-label clinical trial will involve 15 adult female patients with clinically diagnosed postpartum depression (PPD).
The second dose (12 mg) will only be administered if: • a. […] The 6 mg dose was safe and well-tolerated according to the investigator, • c. Any psychoactive effects (PsE) of the prior dose have subsided, and • d. Pre-dose vital parameters and forced expiratory volume in one second (FEV1) are in normal range, or if outside of the normal range, are not clinically significant according to the investigator. • 3. Similarly, a third dose (18 mg) will only be administered if: • a. […] The 12 mg dose was safe and well-tolerated according to the investigator, and • c. Any PsE of the prior dose have subsided, and • d. Pre-dose vital parameters and forced expiratory volume in one second (FEV1) are in normal range, or if outside of the normal range, are not clinically significant according to the investigator.
The patients will be assessed for a peak psychedelic experience (based on a patient-scored visual analogue scale, the PE scale), sedation, and other endpoints after dosing. Follow-up visits are planned for Day 1, and Day 7 after the dosing day.

COc1ccc2[nH]cc(CCN(C)C)c2c1 [5-MeO-DMT]
standard criteria for MADRS response (at least 50% improvement) and MADRS remission (total score <=10): fulfilled | tolerability of inhalation procedure: well tolerated with no inhalation-related adverse events | adverse events (cramping left abdominal pain, headache) (Day 0): mild, short-lasting and resolved spontaneously | ECG, safety laboratory analyses, CADSS (ECG 3 hours, laboratory 7 days, CADSS 3 hours, 1 day, 7 days): unremarkable
